In US8642094B2, “Synergistic pharmaceutical composition, method of making same and use of same” (Afexa Life Sciences Inc., priority 2008, dated 2014):

Key:
[1] = system: secretion of apo-B from HepG2 cells; assay: Apo-B secretion from HepG2 cells; type: cell-based, human; details: for nature of interaction with ethanol extract of HL: non-linear blending curves, combined total doses 30-250 ug/ml, FIGS. 9-11, 14-35; for nature of interaction with berberine (BBR): non-linear blending, combined total dose 50 ug/ml, FIGS. 36-40
Method: In the Examples to follow, Apo-B secretion experiments were carried out on HepG2 cells. These cells were obtained from the American Type Culture Collection (cat #: ATCC HB-8065). HepG2, a human hepatoblastoma-derived cell line, is one of the most commonly used models to study lipoprotein uptake and metabolism in intact human liver. These cells secrete most of the plasma proteins secreted from human liver cells including apolipoprotein-B [38]. In addition, most of the enzymes involved in intra- and extracellular cholesterol metabolism including LCAT, ACAT, HMG-CoA reductase and Cholesterol 7-α-hydroxylase are expressed in these cells.
The effects of HL, KDC and hawthorn extracts, when used in isolation as well as in combination, on the secretion of apo-B from human hepatoma cells, Hep-G2 was determined. Water extracts of Coptis chinesis (Huanglian) and Ku Ding Cha (Ilex kudingcha) were developed and tested; results are indicated in FIGS. 1 and 2, respectively. Ethanolic extracts of Coptis chinesis (Huanglian) and ethyl acetate extracts of Ku Ding Cha (Ilex kudingcha) were also developed and hawthorn extract was used for these experiments shown in FIGS. 3-12.
Additional experiments were subsequently carried out to confirm the synergism between the HL and KDC extracts. Three commonly used approaches including non-linear blending, isobologram and combination index were utilized to determine this interaction.
Determination of a drugs combination index (CI) provides quantitative information of the nature of drug interaction. It is calculated through the following equation: CI=(CA,X/ICX,A)+(CB,X/ICX,B) CA,X and CB,X, are the concentrations of drug A and drug B used in the combination to achieve x % drug effect. ICX,A and ICX,B are the concentrations for single agents to achieve the same effect. A CI of less than, equal to, and more than 1 indicates synergy, additivity, and antagonism, respectively.

squalene synthase = molecular target: T1, squalene synthase (Homo sapiens, UniProt P37268); details: cited from earlier work
T1 sequence (P37268 1-417): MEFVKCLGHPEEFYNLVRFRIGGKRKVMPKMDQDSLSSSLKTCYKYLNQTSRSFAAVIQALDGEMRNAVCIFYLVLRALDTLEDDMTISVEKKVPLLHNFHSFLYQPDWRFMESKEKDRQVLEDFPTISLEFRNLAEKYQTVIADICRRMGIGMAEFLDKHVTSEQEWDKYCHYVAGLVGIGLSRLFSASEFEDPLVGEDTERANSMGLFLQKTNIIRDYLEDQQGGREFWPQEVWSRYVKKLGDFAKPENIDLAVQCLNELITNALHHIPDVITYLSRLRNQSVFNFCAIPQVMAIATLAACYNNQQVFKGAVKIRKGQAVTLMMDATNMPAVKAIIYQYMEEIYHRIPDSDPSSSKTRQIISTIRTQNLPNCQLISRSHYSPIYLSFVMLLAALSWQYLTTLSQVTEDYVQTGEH

[2] = molecular target: acyl-CoA: cholesterol acyltransferase (ACAT); details: cited from earlier work
[3] = 1 g/day for 3 months; cited from earlier work
[4] = oral, 100 mg/day for 2 weeks; cited from earlier work
LDL receptors = details: Hep G2 cells; cited from earlier work
Hep G2 cells = details: cited from earlier work
3T3-L1 adipocytes = details: cited from earlier work
L929 cells = details: cited from earlier work
CYP2D6 = molecular target: T2, CYP2D6 (Homo sapiens, UniProt P10635); details: human liver microsomes, 20 μM; cited from earlier work
T2 construct: incubation of human liver microsomes with BBR; from tissue; host or cells: human liver microsomes
T2 sequence (P10635 whole entry): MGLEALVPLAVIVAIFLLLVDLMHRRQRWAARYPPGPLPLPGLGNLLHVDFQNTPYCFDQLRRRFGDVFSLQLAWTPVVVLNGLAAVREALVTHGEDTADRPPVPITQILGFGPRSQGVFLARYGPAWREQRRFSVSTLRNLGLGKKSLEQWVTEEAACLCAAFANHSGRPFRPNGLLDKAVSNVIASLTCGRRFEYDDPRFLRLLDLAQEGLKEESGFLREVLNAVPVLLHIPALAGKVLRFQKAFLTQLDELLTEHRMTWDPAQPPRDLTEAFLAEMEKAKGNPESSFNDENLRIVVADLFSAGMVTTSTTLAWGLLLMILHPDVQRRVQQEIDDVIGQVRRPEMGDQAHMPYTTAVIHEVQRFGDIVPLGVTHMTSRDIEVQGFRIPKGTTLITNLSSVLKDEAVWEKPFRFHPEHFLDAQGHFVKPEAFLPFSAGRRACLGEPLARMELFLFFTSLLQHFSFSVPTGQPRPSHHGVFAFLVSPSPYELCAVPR

CYP3A4 = molecular target: T3, CYP3A4 (Homo sapiens, UniProt P08684); details: human liver microsomes, 20 μM; cited from earlier work
T3 construct: incubation of human liver microsomes with BBR; from tissue; host or cells: human liver microsomes
T3 sequence (P08684 whole entry): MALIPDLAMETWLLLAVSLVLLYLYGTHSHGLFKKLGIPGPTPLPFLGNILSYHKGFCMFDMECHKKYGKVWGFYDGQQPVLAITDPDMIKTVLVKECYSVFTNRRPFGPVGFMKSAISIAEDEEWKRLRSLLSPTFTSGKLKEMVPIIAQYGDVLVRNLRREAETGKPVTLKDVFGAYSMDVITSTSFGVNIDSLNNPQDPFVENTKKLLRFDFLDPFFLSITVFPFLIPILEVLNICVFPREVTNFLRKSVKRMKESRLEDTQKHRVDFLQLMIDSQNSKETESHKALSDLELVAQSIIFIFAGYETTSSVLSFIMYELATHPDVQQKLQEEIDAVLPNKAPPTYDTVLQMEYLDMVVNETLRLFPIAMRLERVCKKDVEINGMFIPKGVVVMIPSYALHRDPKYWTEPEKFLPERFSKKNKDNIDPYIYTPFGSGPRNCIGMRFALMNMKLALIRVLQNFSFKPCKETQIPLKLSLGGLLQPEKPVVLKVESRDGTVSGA

CYP2E1 = molecular target: T4, CYP2E1 (Homo sapiens, UniProt P05181); details: human liver microsomes, 20 μM; cited from earlier work
T4 construct: incubation of human liver microsomes with BBR; from tissue; host or cells: human liver microsomes
T4 sequence (P05181 whole entry): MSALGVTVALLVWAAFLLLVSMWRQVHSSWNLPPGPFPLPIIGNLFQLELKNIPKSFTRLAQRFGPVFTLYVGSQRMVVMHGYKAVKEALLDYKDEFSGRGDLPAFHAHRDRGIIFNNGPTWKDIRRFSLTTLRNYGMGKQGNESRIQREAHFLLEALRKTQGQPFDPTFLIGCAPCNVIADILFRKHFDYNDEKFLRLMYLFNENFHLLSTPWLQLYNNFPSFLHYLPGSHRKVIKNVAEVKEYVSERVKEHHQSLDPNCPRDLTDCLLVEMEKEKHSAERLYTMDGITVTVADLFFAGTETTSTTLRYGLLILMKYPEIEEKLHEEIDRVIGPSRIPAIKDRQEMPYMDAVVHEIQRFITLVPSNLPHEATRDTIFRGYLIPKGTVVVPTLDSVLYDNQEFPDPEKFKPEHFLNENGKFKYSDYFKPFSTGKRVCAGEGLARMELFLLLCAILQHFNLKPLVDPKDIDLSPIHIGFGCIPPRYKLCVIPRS

mice = details: mouse, in vivo; cited from earlier work
[5] = molecular target: nucleoside triphosphate hydrolase (NTPase); details: cited from earlier work

Molecule: O=C(/C=C/c1ccc(O)c(O)c1)O[C@@H]1C[C@](O)(C(=O)O)C[C@@H](O)[C@H]1O [Chlorogenic acid]
- nature of interaction with ethanol extract of HL [1]: synergism
- nature of interaction with berberine (BBR) [1]: synergism
- IC50 (squalene synthase): 0.1 µM

Molecule: C=C(C)[C@@H]1CC[C@]2(C)CC[C@]3(C)[C@H](CC[C@@H]4[C@@]5(C)CC[C@H](O)C(C)(C)[C@@H]5CC[C@]43C)[C@@H]12 [Lupeol, 3β-Hydroxy-20(29)-lupene]
- nature of interaction with ethanol extract of HL [1]: interacting with HL
- nature of interaction with berberine (BBR) [1]: synergism
- IC50 [2]: 48 µM

Molecule: COc1cc2c(cc1OC)-c1cc3ccc(OC)c(OC)c3c[n+]1CC2 [Palmitine chloride, palmitine chloride]
- nature of interaction with berberine (BBR) [1]: interact synergistically

Molecule: COc1ccc2cc3[n+](cc2c1OC)CCc1cc2c(cc1-3)OCO2 [berberine]
- reduction of LDL-cholesterol [3]: 25%
- reduction of serum cholesterol concentrations [3]: 29%
- reduction of triglycerides [3]: 35%
- reduction of serum LDL-cholesterol levels [4]: up to 30%
- reduction of serum total cholesterol levels [4]: up to 30%
- expression of LDL receptors (LDL receptors): increases the expression of LDL receptors
- synthesis of cholesterol and triglyceride in the cells (Hep G2 cells): inhibit the synthesis of cholesterol and triglyceride
- differentiation of 3T3-L1 adipocytes (3T3-L1 adipocytes): inhibit differentiation
- dose inducing cytotoxicity (L929 cells): greater than 40 μg/ml
- CYP2D6 activity (CYP2D6): decrease the activities
- CYP3A4 activity (CYP3A4): decrease the activities
- CYP2E1 activity (CYP2E1): decrease the activities
- lethal dose (mice): exceeding 15 mg/Kg

Molecule: C=C(C)[C@@H]1CC[C@]2(CO)CC[C@]3(C)[C@H](CC[C@@H]4[C@@]5(C)CC[C@H](O)C(C)(C)[C@@H]5CC[C@]43C)[C@@H]12 [betulin, lup-20[29]-ene-3β,28-diol]
- nature of interaction with ethanol extract of HL [1]: interacting with HL
- nature of interaction with berberine (BBR) [1]: synergism
- IC50 [2]: 83 µM

Molecule: C[C@H]1[C@H](C)CC[C@]2(C(=O)O)CC[C@]3(C)C(=CC[C@@H]4[C@@]5(C)CC[C@H](O)C(C)(C)[C@@H]5CC[C@]43C)[C@H]12 [ursolic acid, 3β-Hydroxy-12-ursen-28-ic acid]
- nature of interaction with ethanol extract of HL [1]: interacting with HL
- nature of interaction with berberine (BBR) [1]: synergism
- IC50 [2]: 58.8 µM
- IC50 [5]: 0.6 µM

Molecule: Lipedoside B-III
- IC50 [2]: 269 µM
